In US10947227B2, “Tricyclic heterocyclic compounds as sting activators” (Incyte Corporation, priority 2018, dated 2021) one finds EC50 data, which are given here for 15 molecules.

Molecules are shown by their SMILES.

This experiment deals with IRF3 activation in THP-1 Dual Cells. The experiment in a line: IRF3 activation assay in THP-1 Dual Cells (QUANTI-Blue readout). The format is cell-based. Particulars: Homo sapiens, THP1-Dual, 24 h, Table 2, 24 hours incubation. Here is the method:
THP-1 Dual Cells (Invivogen) were maintained in RPMI1640 medium with addition of 10% FBS, 100 μg/ml zeocin, 10 μg/ml blasticidin. Cells were added in a 96-well flat bottom assay plate at 100,000 per well in 100 μL complete RPMI medium. Test compounds were prepared by serial dilution in complete RPMI medium and 100 μL test compounds were transferred to each corresponding well. The assay plate was incubated at 37° C., 5% CO2 for 24 hours. After the overnight incubation, 20 μL of the culture supernatants were collected, followed by addition of 180 μL of QUANTI-Blue (Invivogen) to assess IRF3 activity. The amount of IRF3 activation was assessed by reading the absorbance at 620-655 nm with a microplate reader 2 hours later. The culture supernatant from the untreated THP-1 cells was used as the negative control. To determine the NF-κB activation, another 20 μL of culture supernatant were transferred to a 96-well white plate, followed by addition of 50 μL of Quanti-Luc™ assay solution (Invivogen). The amount of NF-κB activation induced by the test compounds were determined by the luminescence above the untreated control. EC50 determination was performed by fitting the curve of percent control activity versus the log of the compound concentration using the GraphPad Prism 6.0 software.
`CCn1nc(C)cc1C(=O)Nc1nc2cc(C(N)=O)cc(OCCO)c2n1C/C=C/Cn1c2nc(-c3cc(C)nn3CC)ncc2c2cc(C(N)=O)cc(OCCCOC)c21` [Example 36, (E)-9-(4-(5-carbamoyl-2-(1-ethyl-3-methyl-1H-pyrazole-5-carboxamido)-7-(2-hydroxyethoxy)-1H-benzo[d]imidazol-1-yl)but-2-en-1-yl)-2-(1-ethyl-3-methyl-1H-pyrazol-5-yl)-8-(3-methoxypropoxy)-9H-pyrimido[4,5-b]indole-6-carboxamide]: the EC50 – broadly, the concentration needed to bring the measured effect to its halfway point – is below 50 nM. Then `CCn1nc(C)cc1C(=O)Nc1nc2cc(C(N)=O)cc(OCCCNC(=O)[C@H](CC(=O)O)NC(=O)[C@H](CC(=O)O)NC(=O)[C@H](CCCNC(=N)N)NC(=O)[C@@H](N)CC(=O)O)c2n1C/C=C/Cn1c2nc(-c3cc(C)nn3CC)ncc2c2cc(C(N)=O)cc(OCCCOC)c21` [Example 37, (6S,9S,12S,15S)-15-amino-1-((5-carbamoyl-1-((E)-4-(6-carbamoyl-2-(1-ethyl-3-methyl-1H-pyrazol-5-yl)-8-(3-methoxypropoxy)-9H-pyrimido[4,5-b]indol-9-yl)but-2-en-1-yl)-2-(1-ethyl-3-methyl-1H-pyrazole-5-carboxamido)-1H-benzo[d]imidazol-7-yl)oxy)-6,9-bis(carboxymethyl)-12-(3-guanidinopropyl)-5,8,11,14-tetraoxo-4,7,10,13-tetraazaheptadecan-17-oic Acid], with 200 to 500 nM; and `CCn1nc(C)cc1C(=O)Nc1nc2cc(C(N)=O)cc(OCCN3CCOCC3)c2n1C/C=C/Cn1c2nc(-c3cc(C)nn3CC)ncc2c2cc(C(N)=O)cc(OCCCOC)c21` [Example 38, (E)-9-(4-(5-carbamoyl-2-(1-ethyl-3-methyl-1H-pyrazole-5-carboxamido)-7-(2-morpholinoethoxy)-1H-benzo[d]imidazol-1-yl)but-2-en-1-yl)-2-(1-ethyl-3-methyl-1H-pyrazol-5-yl)-8-(3-methoxypropoxy)-9H-pyrimido[4,5-b]indole-6-carboxamide], with 50 to 200 nM; and `CCn1nc(C)cc1C(=O)Nc1nc2cc(C(N)=O)cc(OCCCNC(=O)OCCC(=O)O)c2n1C/C=C/Cn1c2nc(-c3cc(C)nn3CC)ncc2c2cc(C(N)=O)cc(OCCCOC)c21` [Example 39, (E)-3-(((3-((5-carbamoyl-1-(4-(6-carbamoyl-2-(1-ethyl-3-methyl-1H-pyrazol-5-yl)-8-(3-methoxypropoxy)-9H-pyrimido[4,5-b]indol-9-yl)but-2-en-1-yl)-2-(1-ethyl-3-methyl-1H-pyrazole-5-carboxamido)-1H-benzo[d]imidazol-7-yl)oxy)propyl)carbamoyl)oxy)propanoic Acid], with below 50 nM. `CCn1nc(C)cc1C(=O)Nc1nc2cc(C(N)=O)cc(OCCCNC(=O)OCC(=O)O)c2n1C/C=C/Cn1c2nc(-c3cc(C)nn3CC)ncc2c2cc(C(N)=O)cc(OCCCOC)c21` [Example 40, (E)-2-(((3-((5-carbamoyl-1-(4-(6-carbamoyl-2-(1-ethyl-3-methyl-1H-pyrazol-5-yl)-8-(3-methoxypropoxy)-9H-pyrimido[4,5-b]indol-9-yl)but-2-en-1-yl)-2-(1-ethyl-3-methyl-1H-pyrazole-5-carboxamido)-1H-benzo[d]imidazol-7-yl)oxy)propyl)carbamoyl)oxy)acetic Acid]: the EC50 is below 50 nM. In turn, `CCn1nc(C)cc1C(=O)Nc1nc2cc(C(N)=O)cc(OCCCNC(=O)NCC(=O)O)c2n1C/C=C/Cn1c2nc(-c3cc(C)nn3CC)ncc2c2cc(C(N)=O)cc(OCCCOC)c21` [Example 41, (E)-((3-((5-carbamoyl-1-(4-(6-carbamoyl-2-(1-ethyl-3-methyl-1H-pyrazol-5-yl)-8-(3-methoxypropoxy)-9H-pyrimido[4,5-b]indol-9-yl)but-2-en-1-yl)-2-(1-ethyl-3-methyl-1H-pyrazole-5-carboxamido)-1H-benzo[d]imidazol-7-yl)oxy)propyl)carbamoyl)glycine] showed an EC50 below 50 nM. The value for `CCn1nc(C)cc1C(=O)Nc1nc2cc(C(N)=O)cc(OCCCNC(=O)[C@@H](N)CC(=O)O)c2n1C/C=C/Cn1c2nc(-c3cc(C)nn3CC)ncc2c2cc(C(N)=O)cc(OCCCOC)c21` [Example 42, (S,E)-3-amino-4-((3-((5-carbamoyl-1-(4-(6-carbamoyl-2-(1-ethyl-3-methyl-1H-pyrazol-5-yl)-8-(3-methoxypropoxy)-9H-pyrimido[4,5-b]indol-9-yl)but-2-en-1-yl)-2-(1-ethyl-3-methyl-1H-pyrazole-5-carboxamido)-1H-benzo[d]imidazol-7-yl)oxy)propyl)amino)-4-oxobutanoic Acid] was 50 to 200 nM; that for `CCn1nc(C)cc1C(=O)Nc1nc2cc(C(N)=O)cc(OCCCOC(=O)NCCC(=O)O)c2n1C/C=C/Cn1c2nc(-c3cc(C)nn3CC)ncc2c2cc(C(N)=O)cc(OCCCOC)c21` [Example 43, (E)-3-(((3-((5-carbamoyl-1-(4-(6-carbamoyl-2-(1-ethyl-3-methyl-1H-pyrazol-5-yl)-8-(3-methoxypropoxy)-9H-pyrimido[4,5-b]indol-9-yl)but-2-en-1-yl)-2-(1-ethyl-3-methyl-1H-pyrazole-5-carboxamido)-1H-benzo[d]imidazol-7-yl)oxy)propoxy)carbonyl)amino)propanoic Acid] was below 50 nM. `CCn1nc(C)cc1C(=O)Nc1nc2cc(C(N)=O)cc(OCCOCCOCCC(=O)O)c2n1C/C=C/Cn1c2nc(-c3cc(C)nn3CC)ncc2c2cc(C(N)=O)cc(OCCCOC)c21` [Example 44, (E)-3-(2-(2-((5-carbamoyl-1-(4-(6-carbamoyl-2-(1-ethyl-3-methyl-1H-pyrazol-5-yl)-8-(3-methoxypropoxy)-9H-pyrimido[4,5-b]indol-9-yl)but-2-en-1-yl)-2-(1-ethyl-3-methyl-1H-pyrazole-5-carboxamido)-1H-benzo[d]imidazol-7-yl)oxy)ethoxy)ethoxy)propanoic Acid] gave a concentration giving a half-maximal response (EC50) below 50 nM. Molecule `CCn1nc(C)cc1C(=O)Nc1nc2cc(C(N)=O)cc(OCCCNS(=O)(=O)CCCC(=O)O)c2n1C/C=C/Cn1c2nc(-c3cc(C)nn3CC)ncc2c2cc(C(N)=O)cc(OCCCOC)c21` [Example 45, (E)-4-(N-(3-((5-carbamoyl-1-(4-(6-carbamoyl-2-(1-ethyl-3-methyl-1H-pyrazol-5-yl)-8-(3-methoxypropoxy)-9H-pyrimido[4,5-b]indol-9-yl)but-2-en-1-yl)-2-(1-ethyl-3-methyl-1H-pyrazole-5-carboxamido)-1H-benzo[d]imidazol-7-yl)oxy)propyl)sulfamoyl)butanoic Acid] returned an EC50 below 50 nM. Turning to `CCn1nc(C)cc1C(=O)Nc1nc2cc(C(N)=O)cc(OC)c2n1C/C=C/Cn1c2nc(-c3cc(C)nn3CC)ncc2c2cc(C(N)=O)cc(OCCCNC(=O)CCCC(=O)O)c21` [Example 46, (E)-5-(3-(6-carbamoyl-9-(4-(5-carbamoyl-2-(1-ethyl-3-methyl-1H-pyrazole-5-carboxamido)-7-methoxy-1H-benzo[d]imidazol-1-yl)but-2-enyl)-2-(1-ethyl-3-methyl-1H-pyrazol-5-yl)-9H-pyrimido[4,5-b]indol-8-yloxy)propylamino)-5-oxopentanoic Acid], the EC50 is below 50 nM. The value for `CCn1nc(C)cc1C(=O)Nc1nc2cc(C(N)=O)cc(OC)c2n1C/C=C/Cn1c2nc(-c3cc(C)nn3CC)ncc2c2cc(C(N)=O)cc(OCCCNC(=O)OCCC(=O)O)c21` [Example 47, (E)-3-(3-(6-carbamoyl-9-(4-(5-carbamoyl-2-(1-ethyl-3-methyl-1H-pyrazole-5-carboxamido)-7-methoxy-1H-benzo[d]imidazol-1-yl)but-2-enyl)-2-(1-ethyl-3-methyl-1H-pyrazol-5-yl)-9H-pyrimido[4,5-b]indol-8-yloxy)propylcarbamoyloxy)propanoic Acid] was below 50 nM; that for `CCn1nc(C)cc1C(=O)Nc1nc2cc(C(N)=O)cc(OCCCO)c2n1C/C=C/Cn1c2nc(-c3cc(C)nn3CC)ncc2c2cc(C(N)=O)cc(OCCCNC(=O)CCCC(=O)O)c21` [Example 48, (E)-5-(3-(6-carbamoyl-9-(4-(5-carbamoyl-2-(1-ethyl-3-methyl-1H-pyrazole-5-carboxamido)-7-(3-hydroxypropoxy)-1H-benzo[d]imidazol-1-yl)but-2-enyl)-2-(1-ethyl-3-methyl-1H-pyrazol-5-yl)-9H-pyrimido[4,5-b]indol-8-yloxy)propylamino)-5-oxopentanoic Acid] was below 50 nM. Molecule `CCn1nc(C)cc1C(=O)Nc1nc2cc(C(N)=O)cc(OCCCO)c2n1C/C=C/Cn1c2nc(-c3cc(C)nn3CC)ncc2c2cc(C(N)=O)cc(OCCCNC(=O)OCCC(=O)O)c21` [Example 49, (E)-3-(3-(6-carbamoyl-9-(4-(5-carbamoyl-2-(1-ethyl-3-methyl-1H-pyrazole-5-carboxamido)-7-(3-hydroxypropoxy)-1H-benzo[d]imidazol-1-yl)but-2-enyl)-2-(1-ethyl-3-methyl-1H-pyrazol-5-yl)-9H-pyrimido[4,5-b]indol-8-yloxy)propylcarbamoyloxy)propanoic Acid] registered an EC50 below 50 nM. The value for `CCn1nc(C)cc1C(=O)Nc1nc2cc(C(N)=O)cc(OCCCOC)c2n1C/C=C/Cn1c2nc(-c3cc(C)nn3CC)ncc2c2cc(C(N)=O)cc(OCCCNC(=O)CCCC(=O)O)c21` [Example 50, (E)-5-(3-(6-carbamoyl-9-(4-(5-carbamoyl-2-(1-ethyl-3-methyl-1H-pyrazole-5-carboxamido)-7-(3-methoxypropoxy)-1H-benzo[d]imidazol-1-yl)but-2-enyl)-2-(1-ethyl-3-methyl-1H-pyrazol-5-yl)-9H-pyrimido[4,5-b]indol-8-yloxy)propylamino)-5-oxopentanoic Acid] was below 50 nM.
